Assay results from patent US10568976B2, “3,6,9, 15-tetraaza-bicyclo [9.3.1 ]pentadeca-1(14), 11(15), 12-triene based compounds and their application as ligands of essential metal ion based MRI and 52MN based PET contrast agents” (DEBRECENI EGYETEM, priority 2015, dated 2020).

Columns and labels:
[1] = literature value, 'under the same conditions'; cited from earlier work
[2] = cited from earlier work
[3] = Stability constants of Mn(II) complexes and calculated pMn (equilibrium study); assay type: physicochemical; settings: 25° C., 0.15M NaCl; for pMn: calculated from equilibrium constants at pH = 7.4 and cMn = cL = 10^−5 M
Method: (§1) During the physico-chemical tests of tPC2AM^Pyp and tPC2AM^Pro compounds synthesized according to Example 1 and 2, their protonation constant, as well as equilibrium behaviour and kinetic inertism of their Mn(II) complexes was studied in detail, and the characteristic relaxivity values of the complexes were determined in the presence and absence of HSA (Human Serum Albumin), at 25 and 37° C. and physiological pH. All studies were performed in the presence of 0.15 M NaCl, the same concentration as that of the electrolyte under physiological conditions.
(§2) The results of equilibrium study are summarized in Table 1, in addition to the protonation constants, total basicity of ligands and stability constants of their Mn(II) complexes, the pMn value calculated for complexes are also represented in the table.
Based on the pMn values represented in Table 1 (calculated using the equilibrium constants at pH=7.4 and cMn=cL=10^−5 M), it can be concluded that the studied Mn(II) complexes are formed in 100% at physiological pH, which is an essential aspect of the practical use.

[4] = Protonation constants of the ligands (equilibrium study); assay type: physicochemical; settings: 25° C., 0.15M NaCl
Method: as §1, §2

Structure (SMILES) | r1 relaxivity [1] | Gd(III) ion released, calculated on the basis of experiments at 25° C. ([2]; 25° C.) | Gd(III) ion released during in vivo dissociation ([2]; 37° C.) | logKMnL (stability constant of Mn(II) complex) [3] | pMn [3] | logK1 (protonation constant) [4] | logK2 (protonation constant) [4] | logK3 (protonation constant) [4] | logK4 (protonation constant) [4] | ΣlogKi^H (total basicity) [4]
CNC[C@H](O)[C@@H](O)[C@H](O)[C@H](O)CO.O=C([O-])CN1CCN(CC(=O)[O-])CCN(CC(=O)O)CCN(CC(=O)[O-])CC1.[Gd+3] [DOTAREM] | 3.83 mM⁻¹ s⁻¹ |  |  |  |  |  |  |  |  | 
CNC[C@H](O)[C@@H](O)[C@H](O)[C@H](O)CO.CNC[C@H](O)[C@@H](O)[C@H](O)[C@H](O)CO.O=C([O-])CN(CCN(CC(=O)[O-])CC(=O)O)CCN(CC(=O)[O-])CC(=O)O.[Gd+3] [MAGNEVIST] | 4.02 mM⁻¹ s⁻¹ | 0.5% | 2.2% |  |  |  |  |  |  | 
O=C(O)C1CCCN1C(=O)CN1CCNCCN(CC(=O)N2CCCC2C(=O)O)Cc2cccc(n2)C1 (stereo not shown) [tPC2AM^Pro] |  |  |  | 13.77(3) | 7.85 | 9.80(2) | 7.96(4) | 3.65(5) | 2.26(4) | 23.67
O=C(CN1CCNCCN(CC(=O)N2CCCCC2)Cc2cccc(n2)C1)N1CCCCC1 [tPC2AM^Pyp] |  |  |  | 13.09(2) | 7.09 | 11.31(1) | 3.94(3) |  |  | 15.26
